In patent US8217172B2, “Solid forms of 1-ethyl-3-(5-(5-fluoropyridin-3-yl)-7-(pyrimidin-2-yl)-1H-benzo[d]imidazol-2-yl)urea” (Vertex Pharmaceuticals Incorporated, priority 2007, dated 2012):
Values after ≈ are worked out from the molar mass of the structure shown. Like-named read-outs stand apart in the source and are kept apart here.

Key:
Assay type in all cases: physicochemical
[1] = Solubility in various media (equilibration on a shaking bed for 24 hours, HPLC); conditions: for solubility at 24 h: thermodynamic from solid
Experimental: (§1) Solubility: The solubility of form IA in various media was determined at ambient conditions by equilibrating aliquots of the drug powder with the solvents on a shaking bed for 24 hours. The samples were centrifuged, the saturated solutions of the drug were then separated and analyzed by HPLC. The sample volume was 100 μL and the target concentration was 10 mg/mL. The saturated solutions were diluted appropriately and analyzed by HPLC.
Solubility: Solubility of form IIC in various media was determined at ambient conditions by equilibrating aliquots of the drug powder with the solvents on a shaking bed for 24 hours. Samples were spun and the supernatant was carefully separated and analyzed by HPLC at the 24-hour timepoint using a stability-indicating method. […] Some variability may occur between lots of a particular sample.
as §1, with “Solubility” for “The solubility”, “IIIB” for “IA”, “medium” for “solvents”, “μL,” for “μL”, “mg/ml.” for “mg/mL.”

[2] = Dynamic Vapor Sorption (DVS), step isothermal study; conditions: 25° C.
Experimental: (§2) Dynamic Vapor Sorption (DVS): A step isothermal study (25° C.) was conducted on a representative sample of form IA using a VTI SGA 100 Symmetric Vapor Sorption Analyzer. An aliquot of approximately 10 mg was weighed in an open platinum dish and exposed to different levels of humidity at 25° C. Relative humidity (RH) steps were from 5% to 95% (adsorption) and from 95% to 5% in increments of 5% RH (desorption). The equilibration criterion was 0.0100 wt % change in 5 min, with a max equilibration time of 180 min. The sample picked up ˜8 wt % moisture at 95% relative humidity (RH).
as §2, with “a” for “a representative”, “form IIA” for “form IA”, “The material” for “The sample”, “up ˜11” for “up ˜8”
as §2, with “a” for “a representative”, “form IIC” for “form IA”, “The material” for “The sample”, “up ˜4” for “up ˜8”
Water Vapor Sorption analysis: Vapor Sorption analysis of a sample of form IIIB was done using a SGA-100 Vapor Sorption Analyzer (VTI, Hialeah, Fla.). A sample with weight of approximately 7-12 mg was measured isothermally at 25° C. Data was collected by Isotherm software and analyzed by Microsoft Excel with a VTI macro (VTI, Hialeah, Fla.). The sample gained about 4.6% in weight from 5 to 95% RH (25° C.).

[3] = Stability analysis (chemical stability by HPLC, physical stability by XRPD)
Text: In some embodiments, less than 25% of the form of Compound 1 decomposes, in some embodiments, less than about 20%, less than about 15%, less than about 10%, less than about 5%, less than about 3%, less than about 1%, less than about 0.5% of the form of Compound 1 decomposes under the conditions specified. In some embodiments, no detectable amount of the form of Compound 1 decomposes.
In some embodiments, less than 25% of the form of Compound 1 changes into one or more different physical forms when subjected to specified conditions, In some embodiments, less than about 20%, less than about 15%, less than about 10%, less than about 5%, less than about 3%, less than about 1%, less than about 0.5% of the form of Compound 1 changes into one or more different physical forms of Compound 1 when subjected to specified conditions. In some embodiments, no detectable amount of the form of Compound 1 changes into one or more different physical forms of Compound 1.

[4] = various storage conditions, including 40° C./75% RH (e.g., open container)

CCNC(=O)Nc1nc2cc(-c3cncc(F)c3)cc(-c3ncccn3)c2[nH]1 [Form IA, crystalline 1-ethyl-3-(5-(5-fluoropyridin-3-yl)-7-(pyrimidin-2-yl)-1H-benzo[d]imidazol-2-yl)urea]
solubility at 24 h ([1]; 0.05 M potassium biphthalate-sodium hydroxide buffer, pH 3, aqueous buffer, Potassium biphthalate sodium hydroxide, pH 3, read-out: Solubility in 0.05M Buffers at Different pH): 70 µg/mL (≈ 185 µM)
solubility at 24 h ([1]; 0.05 M potassium biphthalate-sodium hydroxide buffer, pH 5, aqueous buffer, Potassium biphthalate sodium hydroxide, pH 5, read-out: Solubility in 0.05M Buffers at Different pH): < 1 µg/mL
solubility at 24 h ([1]; 0.05 M potassium chloride-hydrochloric acid buffer, pH 1, simulated gastric fluid, Potassium chloride hydrochloric acid, pH 1, read-out: Solubility in 0.05M Buffers at Different pH): 2240 µg/mL (≈ 5940 µM)
solubility at 24 h ([1]; 0.05 M potassium phosphate monobasic-sodium hydroxide buffer, pH 7, aqueous buffer, Potassium phosphate monobasic-sodium hydroxide, pH 7, read-out: Solubility in 0.05M Buffers at Different pH): < 1 µg/mL
solubility at 24 h ([1]; 0.05 M potassium phosphate monobasic-sodium hydroxide buffer, pH 9, aqueous buffer, Potassium phosphate monobasic-sodium hydroxide, pH 9, read-out: Solubility in 0.05M Buffers at Different pH): < 1 µg/mL
solubility at 24 h ([1]; 0.1N HCl, pH 1.29, simulated gastric fluid, 0.1N HCL, pH 1.29, ambient, 24 h, read-out: Solubility): 13700 µg/mL (≈ 36200 µM)
solubility at 24 h ([1]; 1% SLS (sodium lauryl sulfate), pH 7.87, aqueous with cosolvent or surfactant or cyclodextrin, 1% SLS (Sodium Lauryl Sulfate), pH 7.87, ambient, 24 h, read-out: Solubility): 75 µg/mL (≈ 199 µM)
solubility at 24 h ([1]; 1% Tween 80 in water, aqueous with cosolvent or surfactant or cyclodextrin, 1% Tween80 in water, ambient, 24 h, read-out: Solubility): 10 µg/mL (≈ 26.5 µM)
solubility at 24 h ([1]; 10% Cremophor EL, pH 6.48, aqueous with cosolvent or surfactant or cyclodextrin, 10% Cremophor EL, pH 6.48, ambient, 24 h, read-out: Solubility): 66 µg/mL (≈ 175 µM)
solubility at 24 h ([1]; 10% Cremophor in water, aqueous with cosolvent or surfactant or cyclodextrin, 10% Cremophor in water, ambient, 24 h, read-out: Solubility): 80 µg/mL (≈ 212 µM)
solubility at 24 h ([1]; 10% Tween 80, pH 6.22, aqueous with cosolvent or surfactant or cyclodextrin, 10% Tween 80, pH 6.22, ambient, 24 h, read-out: Solubility): 67 µg/mL (≈ 178 µM)
solubility at 24 h ([1]; 10% Vit E TPGS, pH 5.57, aqueous with cosolvent or surfactant or cyclodextrin, 10% Vit E TPGS, pH 5.57, ambient, 24 h, read-out: Solubility): 87 µg/mL (≈ 231 µM)
solubility at 24 h ([1]; D5W (dextrose 5% in water), saline or isotonic, D5W (Dextrose 5% in water), ambient, 24 h, read-out: Solubility): < 1 µg/mL
solubility at 24 h ([1]; Fasted SIF (Dressman's recipe 1), fassif, Dressman's recipe 1-Fasted SIF, ambient, 24 h, read-out: Solubility): < 1 µg/mL
solubility at 24 h ([1]; Fed SIF (simulated intestinal fluid, Dressman's recipe 1), fessif, Dressman's recipe 1-Fed SIF (Simulated Intestinal Fluid), ambient, 24 h, read-out: Solubility): 10 µg/mL (≈ 26.5 µM)
solubility at 24 h ([1]; Miglyol 810, oil or lipid, Miglyol 810, ambient, 24 h, read-out: Solubility): 17 µg/mL (≈ 45 µM)
solubility at 24 h ([1]; PBS, aqueous buffer, PBS (Phosphate Buffer Saline), ambient, 24 h, read-out: Solubility): < 1 µg/mL
solubility at 24 h ([1]; PEG 400, pH 7.54, organic solvent or mixture, PEG 400, pH 7.54, ambient, 24 h, read-out: Solubility): 1620 µg/mL (≈ 4300 µM)
solubility at 24 h ([1]; SGF (simulated gastric fluid, USP recipe), simulated gastric fluid, USP recipe-SGF (Simulated Gastric Fluid), ambient, 24 h, read-out: Solubility): 4920 µg/mL (≈ 13000 µM)
solubility at 24 h ([1]; Tris buffer, pH 7 (1.0 M), pH 7.2, aqueous buffer, Tris buffer, pH 7 (1.0M), pH 7.20, ambient, 24 h, read-out: Solubility): < 1 µg/mL
solubility ([1]; at a pH of about 1): about 2 mg/mL
solubility at 24 h ([1]; deionized water, pH 7.14, water, Deionized Water, pH 7.14, ambient, 24 h, read-out: Solubility): < 1 µg/mL
solubility at 24 h ([1]; ethanol, organic solvent or mixture, Ethanol (second entry, pH NA), ambient, 24 h, read-out: Solubility): 220 µg/mL (≈ 583 µM)
solubility at 24 h ([1]; ethanol, pH 6.71, organic solvent or mixture, Ethanol (first entry), pH 6.71, ambient, 24 h, read-out: Solubility): 56 µg/mL (≈ 148 µM)
solubility at 24 h ([1]; octanol, organic solvent or mixture, Octanol, ambient, 24 h, read-out: Solubility): 175 µg/mL (≈ 464 µM)
solubility at 24 h ([1]; pH 1, simulated gastric fluid, at a pH of about 1, read-out: solubility): ≥ 2000 µg/mL
solubility at 24 h ([1]; propylene glycol, pH 6.04, organic solvent or mixture, Propylene Glycol, pH 6.04, ambient, 24 h, read-out: Solubility): 359 µg/mL (≈ 951 µM)
hygroscopicity ([2]; DVS): moderate hygroscopicity
hydrate formation ([2]; DVS, 5% to 95% RH): did not form a hydrate
release of adsorbed water in the desorption stage ([2]; DVS, 95% to 5% RH): All adsorbed water was released
moisture picked up at 95% relative humidity (RH) ([2]; DVS, adsorption 5% to 95% RH): ~8 wt %
weight gain from 5% to 95% relative humidity ([2]; step isothermic study (DVS)): 8%
remains chemically stable for at least ([3]; 40° C./75% relative humidity): ≥ 6 months
remains in substantially the same physical form for at least ([3]; 40° C./75% relative humidity): ≥ 6 months
stability when subjected to mild mechanical stress ([3]; mild mechanical stress such as grinding): chemically and physically stable
chemically and physically stable for at least about [3, 4]: at least 2 weeks
chemically and physically stable for at least about (e.g. value) [3, 4]: ≥ 6 months
